Measured values published in US20240018146A1, “COMPOSITIONS AND METHODS OF USING THE SAME FOR TREATMENT OF NEURODEGENERATIVE AND MITOCHONDRIAL DISEASE” (MITOKININ, INC., priority 2020, published 2024).
≈ marks a conversion by molar mass, not a printed value. Entries after “also recorded” stand apart in the source; their conditions may differ. Like-named read-outs stand apart in the source and are kept apart here.

Legend:
HeLa MKYP cells [1] = test: Cell death measured by DAPI staining, with 1 μM FCCP/oligomycin or no toxin (no FO); assay type: cell-based
Outline: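 Cell death was read by DAPI staining after 6–6.5 h compound exposure in HeLa MKYP cells, either with 1 μM FCCP/oligomycin or without toxin. H2O2 served as the cell-death control.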

Parkin = Parkin recruitment to mitochondria (HeLa cells expressing YFP-tagged Parkin, longitudinal imaging); assay type: cell-based, human; conditions: FCCP and Oligomycin, cells with Parkin recruited at 60 minutes, FIG. 29
Description: HeLa cells expressing a YFP-tagged Parkin were treated with […] of FCCP and Oligomycin followed by the specified dose of compound, then analyzed by longitudinal imaging. Percentage of cells with Parkin recruited to mitochondria at 60 minutes is shown.

pS129 α-syn = test: Preformed fibril (PFF) model in primary neuron culture, pS129 α-syn; assay type: cell-based; conditions: for pS129 α-syn (250-12) in primary neuron culture / pS129 α-syn (monomer) in primary neuron culture / pS129 α-syn in primary neuron culture: increasing doses
Outline: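 Primary hippocampal neurons from P0 mouse pups grown 7 days, then exposed to alpha-synuclein preformed fibrils at 5 ug/ml. Read-out is pS129 alpha-synuclein.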

[2] = Inspection of crystallization and round cells; assay type: physicochemical; parameters: key: 1=yes crystals; 0=no crystals
Description: 5. Inspection of Crystallization and Round Cells
Briefly, the Hela MKYP (Mito-Keima/YFP-Parkin) cells were seeded at 10K cells/well. EP/MTK compounds were added at seeding (cells were still in suspension). The cells were incubated with the EP/MTK compounds for 16 hours, then 1 μM FCCP/oligomycin was added for 6 hours. Prior to harvesting, cells were scored by eye under 20× magnification for the presence or absence of crystalline or aggregated compound, or round cells.

HeLa MKYP cells [3] = test: Human mitophagy assay (HeLa mKeima assay, FACS); assay type: cell-based; conditions: for percentage of cells undergoing mitophagy: HeLa cells expressing mtKeima, FCCP and Oligomycin, FACS, FIG. 28; for EC50: Homo sapiens, HeLa
Outline: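 Mitophagy, read by FACS as the share of cells showing the lysosomal mtKeima emission shift, followed 6 h of 1 uM FCCP/oligomycin stimulation. Before that, HeLa MKYP cells spent 16 h with compound over a concentration range.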

Gdf15, Tnfrsf12a = test: Cisplatin challenge, kidney expression of mitochondrial-stress related genes (quantitative PCR); assay type: in vivo, mice (C57Bl/6); conditions: 10 mg/kg cisplatin i.p., oral gavage QD for three days
Description: (§1) Mice were provided at least one week of acclimation to the animal facility and group housed. Mice were injected intraperitoneally with 1 mg/ml cisplatin solution (BluePoint Labs) or 10 ml/kg sterile-filtered saline using 29G insulin syringes. Mice were weighed and administered vehicle, 35985 or 40180 by oral gavage per the dosing regimens noted in the figures. Mice were monitored for excessive weight loss and euthanized if moribund.
(§2) 35985 and 40180 are formulated at ten-fold the dosing concentration in NMP (N-methylpyrrolidone) followed by dilution with solutol-15 and water for a final vehicle concentration of 10% NMP/10% solutol-15/80% water.
RNA was isolated from kidney samples using Rneasy Mini kit (Qiagen) according to its product manual. RNA concentration was measured using NanoDrop™ 2000/2000c Spectrophotometers (Thermo Scientific). 50 ng of RNA for each sample was used to generate cDNA. cDNA was synthesized using High-Capacity RNA-to-cDNA™ Kit (Thermo Scientific) according to its product manual. Quantitative PCR was performed using Power SYBR™ Green PCR Master Mix (Applied Biosystems) according to its product manual. The following primers were used to analyze gene expression levels in the kidney: […]
All gene expression levels were normalized to expression levels of beta-actin using ΔΔCt and expressed as fold change relative to cisplatin vehicle treated mice. […]

cleaved caspase-3 = test: Cleaved caspase-3 levels in primary neuron culture; assay type: cell-based; conditions: compared with toxins
pathologic (pS129) α-syn = test: In vivo α-syn (PFF) model, pathologic pS129 α-syn in striatum; parameters: species or system mice; conditions: oral BID dosing at 50, 25, 12.5, and 6.25 mg/kg
Description: FIG. 9A and FIG. 9B show representative in vivo data of EP-0040180 in an α-syn (PFF) model.
Mouse and human alpha-synuclein monomers have been sourced commercially, then pre-formed fibrils have been generated as per the detailed protocol provided by the MJFF. For in vitro experiments primary hippocampal neurons isolated from P0 pups were grown for 7 days after which PFFs at 5 ug/ml were introduced Pre-formed fibrils will be introduced via stereotactic injection into the striatum of wt (C57BL/6J, Jax #000664) and transgenic A53T mice (B6;C3-Tg(Prnp-SNCA*A53T)83Vle/J, Jax #004479). Cohorts of drug-treated (oral gavage) and untreated animals will then be allowed to age for up to 6 months, at which point they will be sacrificed and perfused. Brains will be removed and fixed, then sectioned for analysis. We anticipate that untreated A53T animals will show significant spreading of aggregated alpha-synuclein pathology and pS129 staining, as well as some possible neurodegeneration; wt animals are also expected to show pS129 synuclein staining and synuclein aggregation, albeit less than that seen in the A53T background.

KIM-1 = test: Cisplatin challenge, kidney injury marker (KIM-1) in urine; assay type: in vivo, mice (C57Bl/6); conditions: 10 mg/kg cisplatin i.p., oral gavage QD, day 3 post-challenge
Description: as §1, §2
Urine was collected from scruffed mice (serial collection) or directly from bladder using insulin syringe during harvest (terminal collection). KIM-1 was measured in mouse urine using R&D System's Mouse TIM-1/KIM-1/HAVCR DuoSet ELISA following manufacturer's published protocol.
Referring to FIG. 36, mice (C57Bl/6) were challenged with a single intraperitoneal dose of 10 mg/kg cisplatin or saline and dosed by oral gavage once per day (QD) with 40180.

[4] = Mitotoxicity / Mitotox safety margin (therapeutic window); assay type: cell-based
Kinetic solubility = assay type: physicochemical
[5] = 25.0 μM compound, HeLa MKYP culture, 20× magnification
[6] = mitophagy, 1 μM FCCP/oligomycin, read-out: E100 EC50
[7] = mitophagy, 1 μM FCCP/oligomycin
[8] = read-out: Mitophagy induction EC50

SMILES	E103 max death with 1 μM FO (HeLa MKYP cells [1])	Parkin recruitment to mitochondria (Parkin)	visual inspection of crystallization ([2]; 0.1 μM compound)	visual inspection of crystallization ([2]; 0.3 μM compound)	visual inspection of crystallization ([2]; 0.9 μM compound)	visual inspection of crystallization ([2]; 2.8 μM compound)	visual inspection of crystallization ([2]; 8.3 μM compound)	visual inspection of crystallization [2, 5]	E102 max mitophagy, fold over DMSO (HeLa MKYP cells [3]; 1 μM FCCP/oligomycin) [fold over DMSO]	percentage of cells undergoing mitophagy (HeLa MKYP cells [3])	EC50 (HeLa MKYP cells [3]; [6]) [µM]	E101 lowest effective dose (HeLa MKYP cells [3]; [7]) [µM]	Highest safe dose (cytotoxicity; no FO; safe means DAPI+ <20%) (HeLa MKYP cells [1]; no FO) [µM]	Max % death with 1 μM FO (HeLa MKYP cells [1]) [%]	pS129 α-syn (250-12) in primary neuron culture (pS129 α-syn)	pS129 α-syn (monomer) in primary neuron culture (pS129 α-syn)	pS129 α-syn in primary neuron culture (pS129 α-syn)	cleaved caspase-3 levels (cleaved caspase-3)	EC50 (HeLa MKYP cells [3]; [8]) [µM]	Mito-Safety Index (highest safe dose/EC50) [4]	also measured
FC(F)(F)c1cc2c(NC3CCCc4ccccc43)ncnc2[nH]1 (single isomer, unassigned) [EP-0035985]	8.14	accelerate recruitment of Parkin to mitochondria; also recorded: dose responsive increase in the rate of Parkin recruitment to mitochondria	0	0	0	0	0	0	4.43	induce mitophagy in a dose dependent manner; also recorded: dose responsive increase in the percentage of cells undergoing mitophagy	0.33	0.31									E105 death at 8.3 μM (no FO) (HeLa MKYP cells [1]; 8.3 μM compound, no FO): 2.54; E104 death at 25 μM (no FO) (HeLa MKYP cells [1]; 25 μM compound, no FO): 3.01; pathological α-synuclein levels in primary neurons (pS129 α-syn; FIG. 8A-C): reduce pathological α-synuclein levels
c1ccc2c(c1)OC[C@H](N1CCOCC1)[C@H]2Nc1ncnc2[nH]c(C3CC3)cc12 (single isomer, unassigned) [EP-0040180]		accelerate recruitment of Parkin to mitochondria; also recorded: dose responsive increase in the rate of Parkin recruitment to mitochondria								induce mitophagy in a dose dependent manner; also recorded: dose responsive increase in the percentage of cells undergoing mitophagy			25.0	10.4	reduces	reduces	reduces	do not significantly alter	0.26	97.54	expression of mitochondrial-stress related genes Gdf15 and Tnfrsf12a in kidney (Gdf15, Tnfrsf12a): reduced expression of these genes in a dose-responsive manner; also recorded: reduces expression of mitochondrial-stress related genes; pathologic (pS129) α-syn (250-12) from the striatum induced by PFF challenge (pathologic (pS129) α-syn): significantly reduces; pathologic (pS129) α-syn (monomer) from the striatum induced by PFF challenge (pathologic (pS129) α-syn): significantly reduces; KIM-1 (kidney-injury marker 1), urine (KIM-1): dose-dependent rescue of KIM-1; also recorded: reduces KIM-1; Highest safe dose (μM) (mitotox or cytotox) [4]: 25.0 µM
FC(F)(F)c1cc2c(N[C@H]3c4ccccc4CC[C@@H]3N3C[C@@H]4COC[C@H]4C3)ncnc2[nH]1 (single isomer, unassigned) [EP-0040270]															reduces	reduces	reduces	increase cleaved caspase-3 levels			
FC(F)(F)c1cc2c(N[C@H]3c4ccccc4CC[C@@H]3N3C[C@H]4COC[C@H]4C3)ncnc2[nH]1 [EP-0038461]	7.97		0	0	0	0	0	1	5.44		0.11	0.93	25.0	9.7					0.1	27.53	Max cell death at 25 μM compound, 1 uM FO (%) (HeLa MKYP cells [1]; 25 μM compound, 1 uM FO): 7.97%; Cell death at 25 μM (no FO) (%) (HeLa MKYP cells [1]; 25 μM compound, no FO): 4.31%; EC50 (HeLa MKYP cells [3]; HeLa mKeima assay, read-out: Mitophagy EC50 (HeLa mKeima assay)): 0.11 µM; EC50 (HeLa MKYP cells [3]; average ± spread, read-out: E100 EC50 (μM) (average)): 0.1 ± 0.01 µM; Mitotox safety margin (Therapeutic window) [4]: +++ (+++ = 20 < x < 30); mitotoxicity ([4]; FIG. 5-7): low mitotoxicity; Highest safe dose (μM) (mitotox or cytotox) [4]: 2.8 µM; solubility kinetic (Kinetic solubility): 1.56 µM (≈ 0.692 µg/mL)
